Reference: PubChem BioAssay (NCI)
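The compound was tested at five concentrations on cells cultured in 96-well plates, with a 48-hour exposure period. The concentration for full growth arrest is given as TGI.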

Key:
Assay in all cases: DTP human tumour cell line panel, 48 h
786-0 renal = system: 786-0 renal
A498 renal = system: A498 renal
A549 NSCLC = system: A549 NSCLC
ACHN renal = system: ACHN renal
BT-549 breast = system: BT-549 breast
CAKI-1 renal = system: CAKI-1 renal
CCRF-CEM leukemia = system: CCRF-CEM leukemia
COLO 205 colon = system: COLO 205 colon
DU-145 prostate = system: DU-145 prostate
EKVX NSCLC = system: EKVX NSCLC
HCC-2998 colon = system: HCC-2998 colon
HCT-116 colon = system: HCT-116 colon
HCT-15 colon = system: HCT-15 colon
HL-60(TB) leukemia = system: HL-60(TB) leukemia
HOP-62 NSCLC = system: HOP-62 NSCLC
HOP-92 NSCLC = system: HOP-92 NSCLC
HS 578T breast = system: HS 578T breast
HT29 colon = system: HT29 colon
IGROV1 ovarian = system: IGROV1 ovarian
K-562 leukemia = system: K-562 leukemia
KM12 colon = system: KM12 colon
LOX IMVI melanoma = system: LOX IMVI melanoma
M14 melanoma = system: M14 melanoma
MALME-3M melanoma = system: MALME-3M melanoma
MCF7 breast = system: MCF7 breast
MDA-MB-231 breast = system: MDA-MB-231 breast
MDA-MB-435 = system: MDA-MB-435
MDA-N = system: MDA-N
MOLT-4 leukemia = system: MOLT-4 leukemia
NCI-H226 lung = system: NCI-H226 lung
NCI-H23 lung = system: NCI-H23 lung
NCI-H460 lung = system: NCI-H460 lung
NCI-H522 lung = system: NCI-H522 lung
NCI/ADR-RES ovarian = system: NCI/ADR-RES ovarian
OVCAR-3 ovarian = system: OVCAR-3 ovarian
OVCAR-4 ovarian = system: OVCAR-4 ovarian
OVCAR-5 ovarian = system: OVCAR-5 ovarian
OVCAR-8 ovarian = system: OVCAR-8 ovarian
PC-3 prostate = system: PC-3 prostate
RPMI-8226 leukemia = system: RPMI-8226 leukemia
RXF 393 renal = system: RXF 393 renal
SF-268 CNS = system: SF-268 CNS
SF-295 CNS = system: SF-295 CNS
SF-539 CNS = system: SF-539 CNS
SK-MEL-2 melanoma = system: SK-MEL-2 melanoma
SK-MEL-28 melanoma = system: SK-MEL-28 melanoma
SK-MEL-5 melanoma = system: SK-MEL-5 melanoma
SK-OV-3 ovarian = system: SK-OV-3 ovarian
SN12C renal = system: SN12C renal
SNB-19 CNS = system: SNB-19 CNS
SR leukemia = system: SR leukemia
SW-620 colon = system: SW-620 colon
T-47D breast = system: T-47D breast
TK-10 renal = system: TK-10 renal
U251 CNS = system: U251 CNS
UACC-257 melanoma = system: UACC-257 melanoma
UACC-62 melanoma = system: UACC-62 melanoma
UO-31 renal = system: UO-31 renal

For `Nc1nc(Nc2ccccc2)sc1C(=O)c1cccs1`, the TGI (786-0 renal) was 28.6 µM, the TGI (A498 renal) was 38.8 µM and the TGI (A549 NSCLC) was 41.7 µM. For the same compound, the TGI (ACHN renal) was > 69.8 µM, the TGI (BT-549 breast) was 35.7 µM and the TGI (CAKI-1 renal) was 62.3 µM. It also gave a TGI (CCRF-CEM leukemia) of 16.6 µM, a TGI (COLO 205 colon) of 22.7 µM and a TGI (DU-145 prostate) of 30.8 µM. The TGI (EKVX NSCLC) was 31.8 µM, the TGI (HCC-2998 colon) was 32.6 µM and the TGI (HCT-116 colon) was 18.2 µM. For the same compound, the TGI (HCT-15 colon) was 27.2 µM, the TGI (HL-60(TB) leukemia) was 12.5 µM and the TGI (HOP-62 NSCLC) was > 65.5 µM. It also gave a TGI (HOP-92 NSCLC) of 71 µM, a TGI (HS 578T breast) of 43.3 µM and a TGI (HT29 colon) of 18.2 µM. For the same compound, the TGI (IGROV1 ovarian) was 36.3 µM, the TGI (K-562 leukemia) was 55.7 µM and the TGI (KM12 colon) was 14.9 µM. The TGI (LOX IMVI melanoma) was 27.3 µM, the TGI (M14 melanoma) was 36.2 µM and the TGI (MALME-3M melanoma) was 37.3 µM. The TGI (MCF7 breast) was 24.2 µM, the TGI (MDA-MB-231 breast) was 68.6 µM and the TGI (MDA-MB-435) was 29.4 µM. The TGI (MDA-N) was 46.4 µM, the TGI (MOLT-4 leukemia) was 43.9 µM and the TGI (NCI-H226 lung) was 39.7 µM. For the same compound, the TGI (NCI-H23 lung) was 38.1 µM, the TGI (NCI-H460 lung) was 24.5 µM and the TGI (NCI-H522 lung) was 25.9 µM. For the same compound, the TGI (NCI/ADR-RES ovarian) was 82 µM, the TGI (OVCAR-3 ovarian) was > 28.2 µM and the TGI (OVCAR-4 ovarian) was 40.6 µM. It also gave a TGI (OVCAR-5 ovarian) of 32.1 µM, a TGI (OVCAR-8 ovarian) of 78.4 µM and a TGI (PC-3 prostate) of 41.9 µM. The TGI (RPMI-8226 leukemia) was 37 µM, the TGI (RXF 393 renal) was 20.2 µM and the TGI (SF-268 CNS) was 46.6 µM. For the same compound, the TGI (SF-295 CNS) was 66.6 µM, the TGI (SF-539 CNS) was 25.5 µM and the TGI (SK-MEL-2 melanoma) was 29.6 µM. For the same compound, the TGI (SK-MEL-28 melanoma) was > 62.4 µM, the TGI (SK-MEL-5 melanoma) was 15.9 µM and the TGI (SK-OV-3 ovarian) was 90.2 µM. It also gave a TGI (SN12C renal) of 38.3 µM, a TGI (SNB-19 CNS) of 46.5 µM and a TGI (SR leukemia) of 11.2 µM. For the same compound, the TGI (SW-620 colon) was 37.7 µM, the TGI (T-47D breast) was > 59.3 µM and the TGI (TK-10 renal) was 46.8 µM. The TGI (U251 CNS) was 40.8 µM, the TGI (UACC-257 melanoma) was 32.5 µM and the TGI (UACC-62 melanoma) was 31 µM. The TGI (UO-31 renal) was 36.2 µM.
